What follows are compounds tested on Kasumi-1 acute myeloid leukemia cells (assay: Growth Inhibition Assay (Alamar blue), Kasumi-1). Conditions: Homo sapiens, Kasumi 1, 72 h, Kasumi-1 cells.
Assay type: cell-based, human
Protocol: The IC50 values listed for some of these compounds illustrate the antiproliferative effects of the subject compounds and were obtained using the Growth Inhibition assays described herein.
Growth Inhibition Assay. Antiproliferative effects of inhibitors were evaluated using the dye Alamar blue. This reagent offers a rapid objective measure of cell viability in cell culture, and it uses the indicator dye resazurin to measure the metabolic capacity of cells, an indicator of cell viability. Briefly, cells were plated on Costar 96-well plates. For attached cells (such as SKBr3, MDA-MB-468, LNCaP, MRCS), 8,000 cells/well were used. For suspension cells (such as MOLM-13, Kasumi-1, OCI-Ly7, PBL), 20,000 cells/well were plated. Cells were allowed to incubate for 24 h at 37° C. before drug treatment. Drugs were added in triplicates at the indicated concentrations, and the plate was incubated for 72 h. Alamar Blue (440 μM) was added, and the plate read 6 h later using the Analyst GT (Fluorescence intensity mode, excitation 530 nm, emission 580 nm, with 560=dichroic mirror). Results were analyzed using the Softmax Pro software. The percentage cell growth inhibition was calculated by comparing fluorescence readings obtained from treated versus control cells, accounting for initial cell population (time zero).

For C=CC(=O)Nc1cc(N)nc(Sc2c(OC)nc(N3CCN(CCOCCOCCOCCOC(=O)CCCCC4SCC5NC(=O)NC54)CC3)nc2OC)n1 (stereo not drawn) [YK55, 2-(2-(2-(2-(4-(5-(4-acrylamido-6-aminopyrimidin-2-ylthio)-4,6-dimethoxypyrimidin-2-yl)piperazin-1-yl)ethoxy)ethoxy)ethoxy)ethyl 5-(2-oxohexahydro-1H-thieno[3,4-d]imidazol-4-yl)pentanoate], which IC50 is on record?
Its IC50 is 13.1 µM.

Which IC50 does the source give for CCCCN1CCN(c2nc(OC)c(Sc3nc(NC(C)=O)cc(NC(C)=O)n3)c(OC)n2)CC1 [YK24, N,N′-(2-(2-(4-butylpiperazin-1-yl)-4,6-dimethoxypyrimidin-5-ylthio)pyrimidine-4,6-diyl)diacetamide] here?
The IC50 was 16.8 µM.

With CCCCCCCC(=O)Nc1cc(N)nc(Sc2c(OC)nc(N3CCN(C)CC3)nc2OC)n1 [YK20, N-(6-amino-2-(4,6-dimethoxy-2-(4-methylpiperazin-1-yl)pyrimidin-5-ylthio)pyrimidin-4-yl)octanamide] as the compound, how does the IC50 read?
The IC50 was 6.3 µM.

With COc1nc(N2CCOCC2)nc(OC)c1Sc1nc(N)cc(N)n1 [YK11, 2-(4,6-dimethoxy-2-morpholinopyrimidin-5-ylthio)pyrimidine-4,6-diamine] as the compound, how does the IC50 read?
Its IC50 is greater than 100 µM.

Which IC50 does the source give for C=C(C)C(=O)Nc1ccnc(Sc2c(OC)nc(N3CCCC3)nc2OC)n1 [YK108, N-(2-(4,6-dimethoxy-2-(pyrrolidin-1-yl)pyrimidin-5-ylthio)pyrimidin-4-yl)methacrylamide] here?
The IC50 was 9.5 µM.

With CCOc1nc(N2CCN(C)CC2)nc(OCC)c1Sc1nc(NC(C)=O)cc(NC(C)=O)n1 [YK29, N,N′-(2-(4,6-diethoxy-2-(4-methylpiperazin-1-yl)pyrimidin-5-ylthio)pyrimidine-4,6-diyl)diacetamide] as the compound, how does the IC50 read?
Its IC50 is 76.7 µM.

For C=CC(=O)Nc1cc(N)nc(Sc2c(OC)nc(N3CCN(CCOCCOCCOCCO)CC3)nc2OC)n1 [YK54, N-(6-amino-2-(2-(4-(2-(2-(2-(2-hydroxyethoxy)ethoxy)ethoxy)ethyl)piperazin-1-yl)-4,6-dimethoxypyrimidin-5-ylthio)pyrimidin-4-yl)acrylamide], which IC50 is on record?
The IC50 was 4.8 µM.

COc1nc(N2CCCCC2)nc(OC)c1Sc1nc(NC(C)=O)cc(NC(C)=O)n1 [YK9, N,N′-(2-(4,6-dimethoxy-2-(piperidin-1-yl)pyrimidin-5-ylthio)pyrimidine-4,6-diyl)diacetamide] was tested. Which IC50 did it give?
The IC50 was greater than 100 µM.

For CCOc1nc(N2CCCCC2)nc(OCC)c1Sc1nc(N)cc(NC(=O)CC)n1 [YK38, N-(6-amino-2-(4,6-diethoxy-2-(piperidin-1-yl)pyrimidin-5-ylthio)pyrimidin-4-yl)propionamide], which IC50 is on record?
The IC50 was 50 µM.

COc1nc(N2CCOCC2)nc(OC)c1Sc1nccc(NC(C)=O)n1 [YK65, N-(2-(4,6-dimethoxy-2-morpholinopyrimidin-5-ylthio)pyrimidin-4-yl)acetamide] was tested. Which IC50 did it give?
Its IC50 is 15.7 µM.

Which IC50 does the source give for COc1nc(N2CCCCC2)nc(OC)c1Sc1nccc(NC(C)=O)n1 [YK64, N-(2-(4,6-dimethoxy-2-(piperidin-1-yl)pyrimidin-5-ylthio)pyrimidin-4-yl)acetamide] here?
Its IC50 is 4 µM.

COc1nc(N2CCCC2)nc(OC)c1Sc1nccc(NC(C)=O)n1 [YK66, N-(2-(4,6-dimethoxy-2-(pyrrolidin-1-yl)pyrimidin-5-ylthio)pyrimidin-4-yl)acetamide] was tested. Which IC50 did it give?
Its IC50 is 48.3 µM.

For COc1nc(N2CCOCC2)nc(OC)c1Sc1nccc(N)n1 [YK69, 2-(4,6-dimethoxy-2-morpholinopyrimidin-5-ylthio)pyrimidin-4-amine], which IC50 is on record?
Its IC50 is 54.2 µM.

How did the IC50 turn out when COc1nc(N)nc(OC)c1Sc1nc(N)cc(NC(=O)CCN2CCN(C)CC2)n1 [YK6, N-(6-amino-2-(2-amino-4,6-dimethoxypyrimidin-5-ylthio)pyrimidin-4-yl)-3-(4-methylpiperazin-1-yl)propanamide] was run?
Its IC50 is 23 µM.

CCCCCCCC(=O)Nc1cc(N)nc(Sc2c(OC)nc(N3CCOCC3)nc2OC)n1 [YK22, N-(6-amino-2-(4,6-dimethoxy-2-morpholinopyrimidin-5-ylthio)pyrimidin-4-yl)octanamide] was tested. Which IC50 did it give?
Its IC50 is 12.3 µM.

Source: patent publication US9567318B2, “Substituted pyrimidine compounds and uses thereof” (Memorial Sloan-Kettering Cancer Center, priority 2009, dated 2017)
